Reference: patent US20240383915A1, “OXAZEPINE COMPOUNDS AND USES THEREOF IN THE TREATMENT OF CANCER” (Genentech, Inc., priority 2021, published 2024)

How the values were obtained:
KRAS wild type = KRAS wild type (Homo sapiens (Human), UniProt P01116); assay: KRas (wt) GDP HTRF (BODIPY-GDP exchange TR-FRET); format: biochemical
Experimental: (§1) KRAS Biochemical Assay—BODIPY-GDP Exchange TR-FRET. Biochemical compound potencies were assessed by evaluating inhibition of SOS1-mediated nucleotide exchange in KRAS G12D. The SOS1-promoted exchange of fluorescently-labeled GDP (BODIPY-GDP) was monitored by time-resolved fluorescence resonance energy transfer (TR-FRET). Compounds solubilized in DMSO were dispensed as concentration series into 384-well white assay plates. A preformed complex of biotin-tagged recombinant human KRAS (1.5 nM mutant G12D or wild type) and 0.15 nM terbium-labeled streptavidin (CisBIO) prepared in 10 μL/well assay buffer (20 mM HEPES, pH 7.5, 50 mM NaCl, 10 mM MgCl2, 0.01% Tween-20 and 1 mM dithiothreitol) was added and allowed to incubate for 10-minutes. The reaction was initiated with the addition of 5 μL of 3 nM recombinant human SOS1 and 300 nM BODIPY-GDP in assay buffer. After a 60-minute incubation, the fluorescence was measured with excitation at 337 nm and emission at 490 and 520 nm. The TR-FRET ratio was determined as the fluorescence at 520 nm divided by the fluorescence at 490 nm multiplied by 10,000. […] The normalized TR-FRET results were plotted against compound concentration, and the data fit to a 4-parameter Hill equation to determine the IC50 values.

KRAS G12D = KRAS G12D (Homo sapiens (Human), UniProt P01116, G12D); assay: KRas (G12D) GDP HTRF (BODIPY-GDP exchange TR-FRET); format: biochemical
Chain of KRAS G12D (P01116-2 other isoform, or with tags, fused parts or gaps G12D): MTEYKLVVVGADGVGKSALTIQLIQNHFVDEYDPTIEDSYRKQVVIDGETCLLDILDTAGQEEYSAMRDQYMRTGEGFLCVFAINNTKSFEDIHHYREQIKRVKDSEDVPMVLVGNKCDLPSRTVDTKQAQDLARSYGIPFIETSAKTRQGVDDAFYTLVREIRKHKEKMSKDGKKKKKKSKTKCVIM
Experimental: as §1

SW480 cells = assay: SW480 proliferation assay; format: cell-based; settings: Homo sapiens, SW480, SW480; read-out: SW480 Prolif IC50 (G12V)
KRas(G12V) = KRas(G12V) (Homo sapiens (Human), UniProt P01116, G12V); assay: KRas(G12V) GDP HTRF (BODIPY-GDP exchange TR-FRET); format: biochemical
Chain of KRas(G12V) (P01116-2 other isoform, or with tags, fused parts or gaps G12V): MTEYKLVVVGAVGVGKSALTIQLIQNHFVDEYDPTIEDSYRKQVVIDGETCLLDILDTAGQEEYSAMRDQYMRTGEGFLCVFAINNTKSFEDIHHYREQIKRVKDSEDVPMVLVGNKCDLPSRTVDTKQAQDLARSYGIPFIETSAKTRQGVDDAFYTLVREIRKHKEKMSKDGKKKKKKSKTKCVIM

PC-9 cells = assay: PC9 proliferation assay; format: cell-based, human; settings: Homo sapiens, PC-9, PC9; read-out: PC9 Prolif IC50 (G12V)
KRas = KRas (Homo sapiens (Human), UniProt P01116); assay: KRas GDP HTRF (BODIPY-GDP exchange TR-FRET); format: biochemical
Chain of KRas (P01116-2 other isoform, or with tags, fused parts or gaps): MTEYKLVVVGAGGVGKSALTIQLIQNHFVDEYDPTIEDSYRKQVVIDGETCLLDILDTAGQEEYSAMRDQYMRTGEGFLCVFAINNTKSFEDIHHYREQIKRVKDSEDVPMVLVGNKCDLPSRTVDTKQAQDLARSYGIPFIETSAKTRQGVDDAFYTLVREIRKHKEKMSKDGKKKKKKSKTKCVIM
Method in brief: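 Inhibition of SOS1-mediated exchange of BODIPY-GDP on KRAS G12D, started with 3 nM recombinant human SOS1 and 300 nM BODIPY-GDP and read after 60 min. TR-FRET excitation 337 nm, ratio 520/490 nm ×10,000. IC50 from 4-parameter Hill fit of normalized data.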

Chain of KRAS wild type (P01116-2 other isoform, or with tags, fused parts or gaps): as above

| Structure (SMILES) | IC50 (KRAS wild type) | IC50 (KRAS G12D) | IC50 (SW480 cells) | IC50 (KRas(G12V)) | IC50 (PC-9 cells) | IC50 (KRas) |
| --- | --- | --- | --- | --- | --- | --- |
| C=C1CN2CCC[C@@]2(COc2nc3c4c(c(Cl)c(-c5nc(N)cc(C)c5C(F)(F)F)c(F)c4n2)OCCN3C2CCNC2)C1 (stereo partly drawn) [Example 518] | 128 nM | 29 nM |  |  |  |  |
| C=C1CN2CCC[C@@]2(COc2nc3c4c(c(Cl)c(-c5nc(N)cc(C)c5C(F)(F)F)c(F)c4n2)OCCN3C2CCNC2)C1 (stereo partly drawn) [Example 515] | 20 nM | 3.39 nM |  |  |  |  |
| C=C1CN2CCC[C@@]2(COc2nc3c4c(c(Cl)c(-c5c(F)ccc6cnn(C)c56)cc4n2)OCCN3CCN(C)C)C1 [Example 512] | 1110 nM | 174 nM |  |  |  |  |
| Cc1cc(N)nc(-c2c(Cl)c3c4c(nc(OC[C@@]56CCN5CC(F)(F)C6)nc4c2F)N([C@H](C)c2cccnc2N)CCO3)c1C(F)(F)F (atropisomer, axis not shown) [Example 114a, 6-((R)-4-((R)-1-(2-aminopyridin-3-yl)ethyl)-8-chloro-2-(((S)-3,3-difluoro-1-azabicyclo[3.2.0]heptan-5-yl)methoxy)-10-fluoro-5,6-dihydro-4H-[1,4]oxazepino[5,6,7-de]quinazolin-9-yl)-4-methyl-5-(trifluoromethyl)pyridin-2-amine] |  |  | 3.2 nM | 0.24 nM | 7000 nM | 0.39 nM |
| Cc1cc(N)nc(-c2c(Cl)c3c4c(nc(OC[C@]56CCN5CC(F)(F)C6)nc4c2F)N([C@H](C)c2ccnnc2N)CCO3)c1C(F)(F)F (atropisomer, axis not shown) [Example 77b, 4-((R)-1-((R)-9-(6-amino-4-methyl-3-(trifluoromethyl)pyridin-2-yl)-8-chloro-2-(((R)-3,3-difluoro-1-azabicyclo[3.2.0]heptan-5-yl)methoxy)-10-fluoro-5,6-dihydro-4H-[1,4]oxazepino[5,6,7-de]quinazolin-4-yl)ethyl)pyridazin-3-amine] |  |  | 65 nM | 0.13 nM | 20000 nM | 0.34 nM |
| Cc1cc(N)nc(-c2cc3ncnc4c3c(c2Cl)OCCN4C(c2cccnc2N)C(F)(F)F)c1C(F)(F)F (stereo not drawn) [Example 20, 6-(4-(1-(2-aminopyridin-3-yl)-2,2,2-trifluoroethyl)-8-chloro-5,6-dihydro-4H-[1,4]oxazepino[5,6,7-de]quinazolin-9-yl)-4-methyl-5-(trifluoromethyl)pyridin-2-amine] |  |  | 7300 nM | 69 nM | 8700 nM | 510 nM |
| Cc1cc(N)nc(-c2c(Cl)c3c4c(nc(OC[C@@]56CCCN5C[C@H](F)C6)nc4c2F)N([C@@H](c2cccnc2N)C2CC2)CCO3)c1C(F)(F)F (atropisomer, axis not shown; (aS)) [Example 86, 6-((R)-4-((R)-(2-aminopyridin-3-yl)(cyclopropyl)methyl)-8-chloro-10-fluoro-2-(((2R,7aS)-2-fluorotetrahydro-1H-pyrrolizin-7a(5H)-yl)methoxy)-5,6-dihydro-4H-[1,4]oxazepino[5,6,7-de]quinazolin-9-yl)-4-methyl-5-(trifluoromethyl)pyridin-2-amine] |  |  | 4.9 nM | 0.15 nM | 3700 nM | 0.44 nM |
| Cc1cc(N)nc(-c2c(Cl)c3c4c(nc(OC[C@@H]5CCN5CC(F)F)nc4c2F)N([C@H](C)c2cccnc2N)CCO3)c1C(F)(F)F (atropisomer, axis not shown) [Example 109, 6-((R)-4-((R)-1-(2-aminopyridin-3-yl)ethyl)-8-chloro-2-(((S)-1-(2,2-difluoroethyl)azetidin-2-yl)methoxy)-10-fluoro-5,6-dihydro-4H-[1,4]oxazepino[5,6,7-de]quinazolin-9-yl)-4-methyl-5-(trifluoromethyl)pyridin-2-amine] |  |  | 2.8 nM | 0.18 nM | 13000 nM | 0.222 nM |
| Cc1cc(N)nc(-c2c(Cl)c3c4c(nc(OC[C@@H]5CC[C@H]6CN(S(C)(=O)=O)CCN56)nc4c2F)N([C@H](C)c2cccnc2N)CCO3)c1C(F)(F)F (atropisomer, axis not shown; (aS)) [Example 125a, 6-((R)-4-((R)-1-(2-aminopyridin-3-yl)ethyl)-8-chloro-10-fluoro-2-(((6S,8aS)-2-(methylsulfonyl)octahydropyrrolo[1,2-a]pyrazin-6-yl)methoxy)-5,6-dihydro-4H-[1,4]oxazepino[5,6,7-de]quinazolin-9-yl)-4-methyl-5-(trifluoromethyl)pyridin-2-amine] |  |  | 23 nM | 0.12 nM | 3700 nM | 0.218 nM |
| Cc1cc(N)nc(-c2c(Cl)c3c4c(nc(OC[C@@H]5CC[C@H]6COC(F)(F)CN56)nc4c2F)N([C@H](C)c2cccnc2N)CCO3)c1C(F)(F)F (atropisomer, axis not shown; (aS)) [Example 91a, 6-((R)-4-((R)-1-(2-aminopyridin-3-yl)ethyl)-8-chloro-2-(((6S,8aS)-3,3-difluorohexahydro-1H-pyrrolo[2,1-c][1,4]oxazin-6-yl)methoxy)-10-fluoro-5,6-dihydro-4H-[1,4]oxazepino[5,6,7-de]quinazolin-9-yl)-4-methyl-5-(trifluoromethyl)pyridin-2-amine] |  |  | 3.4 nM | 0.29 nM | 20000 nM | 0.9 nM |
| C[C@H](c1cccnc1N)N1CCOc2c(Cl)c(-c3cc(O)cc4ccccc34)c(F)c3nc(OC[C@@]45CCCN4C[C@H](F)C5)nc1c23 [Example 119, 4-(4-((R)-1-(2-aminopyridin-3-yl)ethyl)-8-chloro-10-fluoro-2-(((2R,7aS)-2-fluorotetrahydro-1H-pyrrolizin-7a(5H)-yl)methoxy)-5,6-dihydro-4H-[1,4]oxazepino[5,6,7-de]quinazolin-9-yl)naphthalen-2-ol] |  |  | 16 nM | 0.05 nM | 3000 nM | 0.14 nM |
| Cc1cc(N)nc(-c2cc3ncnc4c3c(c2Cl)OCCN4[C@H](C)c2cncc(N)c2)c1C(F)(F)F [Example 17, (R)-6-(4-(1-(5-aminopyridin-3-yl)ethyl)-8-chloro-5,6-dihydro-4H-[1,4]oxazepino[5,6,7-de]quinazolin-9-yl)-4-methyl-5-(trifluoromethyl)pyridin-2-amine] |  |  | 8700 nM | 6.1 nM | 17000 nM | 52 nM |
| Cc1cc(N)nc(-c2c(Cl)c3c4c(nc(OC[C@H]5CC[C@@H]6COC(F)(F)CN56)nc4c2F)N([C@H](C)c2cccnc2N)CCO3)c1C(F)(F)F (atropisomer, axis not shown; (aR)) [Example 91b, 6-((R)-4-((R)-1-(2-aminopyridin-3-yl)ethyl)-8-chloro-2-(((6R,8aR)-3,3-difluorohexahydro-1H-pyrrolo[2,1-c][1,4]oxazin-6-yl)methoxy)-10-fluoro-5,6-dihydro-4H-[1,4]oxazepino[5,6,7-de]quinazolin-9-yl)-4-methyl-5-(trifluoromethyl)pyridin-2-amine] |  |  | 140 nM | 0.81 nM | 6400 nM | 2.2 nM |
| Cc1cc(N)nc(-c2cc3nc(OC[C@@]45CCCN4C[C@H](F)C5)nc4c3c(c2Cl)OCCN4Cc2cn[nH]c2)c1C(F)(F)F [Example 2, 6-(4-((1H-pyrazol-4-yl)methyl)-8-chloro-2-(((2R,7aS)-2-fluorotetrahydro-1H-pyrrolizin-7a(5H)-yl)methoxy)-5,6-dihydro-4H-[1,4]oxazepino[5,6,7-de]quinazolin-9-yl)-4-methyl-5-(trifluoromethyl)pyridin-2-amine] |  |  | 11000 nM | 11 nM | 7700 nM | 25 nM |
| Cc1cc(N)nc(-c2c(Cl)c3c4c(nc(OCC5CCN(C)C5)nc4c2F)N([C@H](C)c2cccnc2N)CCO3)c1C(F)(F)F (stereo partly drawn) [Example 134, 6-((9R)-4-((R)-1-(2-aminopyridin-3-yl)ethyl)-8-chloro-10-fluoro-2-((1-methylpyrrolidin-3-yl)methoxy)-5,6-dihydro-4H-[1,4]oxazepino[5,6,7-de]quinazolin-9-yl)-4-methyl-5-(trifluoromethyl)pyridin-2-amine] |  |  | 590 nM | 0.08 nM | 1600 nM | 0.21 nM |
